One series concerns the target T1, PBP2a (Staphylococcus aureus, UniProt P07944).
T1 construct: made in house
Put plainly: PBP2a enzymatic inhibition assay (fluorescein-labeled ampicillin, residual penicillin binding activity). Type of series: biochemical, Staphylococcus aureus ATCC 43300. The protocol:
(§1) PBP2a from Staphylococcus aureus ATCC 43300 and PBP5fm from Enterococcus faecium D63r were overproduced and purified as described previously, [18].
(§2) Each of the purified PBPs (2.5 µM) were first incubated with 1 mM potential inhibitor in 100 mM phosphate buffer, 0.01% Triton X-100[19], pH 7, for 4 h at 30°C. Then, 25 µM fluorescein-labeled ampicillin[20] was added to detect the residual penicillin binding activity (RA). The samples were further incubated for 30 min at 37°C in a total volume of 20 µL. Denaturation buffer was added (0.1 M Tris/HCl, pH 6.8, containing 25% glycerol, 2% SDS, 20% β-mercaptoethanol and 0.02% bromophenol blue) and the samples were heated to 100°C for 1 min. The samples were then loaded onto a 10% SDS-acrilamide gel (10×7 cm) and electrophoresis was performed for 45 min at 180 V (12 mA). Detection and quantification of the RAs were with Molecular Image FX equipment and Quantity One software (BioRad, Hercules, CA, USA). Three independent experiments were carried out for each inhibitor.

Another series has as its target PBP2x 5204 (Streptococcus pneumoniae, UniProt P59676). Put plainly: PBP2x 5204 enzymatic inhibition assay (S2d hydrolysis, DTNB). Type of series: biochemical, Streptococcus pneumoniae strain 5204. As for the experimental part: PBP2x-5204 from Streptococcus pneumonia and N-benzoyl-D-alanyl-thioglycolate S2d[21], [22] were prepared as previously described. All assays with PBP2x 5204 were carried out in 96-well microtiter plates (Brand, Wertheim, Germany). PBP2x 5204 (0.6 µM) was incubated in the presence of the potential inhibitors in 10 mM sodium phosphate buffer (pH 7.0) containing 70 mM D-alanine and 0.01 mg/mL BSA, for 4 h at 25°C. This preincubation was used to also detect slow binding inhibitors. After the preincubation, the RA of PBP2x 5204 was determined. The initial rate of hydrolysis of 1 mM S2d in the presence of 1 mM DTNB was determined by monitoring the increase in absorbance at 412 nm (DTNB: ε[Δ ε] = […]) using a microplate absorbance reader (Power Wave X, Biotek Instruments, Winooski, U.S.A.). The rate of spontaneous hydrolysis of S2d in the presence of the potential inhibitors was also determined in the absence of PBP2x 5204. All of the assays were carried out in triplicate. The determination of the RA of PBP2x 5204 in the absence of inhibitors was carried out six times on each plate. A test compound was considered as an inhibitor if the RA was <80%. In this case, to reveal false positives, the assays were also carried out under the same conditions in the presence of 0.01% Triton X-100. As described in the literature, promiscuous inhibitors (false positives) are slow binding, noncompetitive inhibitors. To avoid detailed kinetic investigations, it is possible to identify such compounds by carrying out the assays in the presence of Triton X-100[14], [19]. Promiscuous inhibitors show no inhibition in the presence of Triton X-100. The IC50 values in the presence of Triton X-100 were determined if the RAs were <50%. (RA: ∼50%, IC50∼c, c: concentration of compound in the assay; RA >50%, IC50 > c). The RA was measured over a range of concentrations, from which the IC50 values were determined by non-linear regression analysis, using Sigma Plot (Systat software) and fitting the data to the equation y = y0+(a×b)/(b+x)[23].

For a further series, the target named is PBP5fm (Enterococcus faecium, UniProt Q47759). Put plainly: PBP5fm enzymatic inhibition assay (fluorescein-labeled ampicillin, residual penicillin binding activity). Type of series: biochemical, Enterococcus faecium D63r. The settings on record: 4 h; residual activity of the enzyme at 1 mM inhibitor; 0.01% Triton X-100; read-out: PBP5fm RA [%]. As for the experimental part:
as §1, §2

In series [1] the test system is Bacillus subtilis ATCC 6633. Put plainly: In-vitro antibacterial activity (MIC, broth microdilution). It counts as cell-based. To be noted: ATCC6633. As for the experimental part:
(§3) Determination of the antibacterial activities was carried out on microtiter plates, in 200 µL (final volume) of Müeller-Hinton Broth (MHB), following EUCAST (European Committee on Antimicrobial Susceptibility testing)/CLSI (Clinical and Laboratory Standard Institute) recommended procedures, [25]. The compounds were solubilized in MHB, just before use. Inocula were prepared for each strain by resuspending isolated colonies from 18 h cultured plates. Equivalents of 0.5 Mac Farland turbidity standards (approximately 1×10^8 CFU mL^−1) were prepared in saline solution ([…]) and then diluted 200-fold in MBH.
On the technique in general: In broth dilution the organism is exposed to a series of concentrations in liquid medium.

Series [2] deals with Citrobacter freundii ATCC 8090. The series is described as above. To be noted: ATCC8090. It counts as cell-based. As for the experimental part:
as §3

The subject of series [3] is Enterococcus faecium ATCC 19434. The series is described as above. To be noted: ATCC19434. It counts as cell-based. The protocol: as §3
Series [4] relates to Enterococcus hirae ATCC 8790. The series is described as above. It counts as cell-based. To be noted: ATCC8790. The protocol: as §3
Series [5] has as its system Klebsiella pneumoniae ATCC 13883. The series is described as above. It counts as cell-based. The settings on record: ATCC13883. The protocol: as §3
In series [6] the test system is Listeria innocua ATCC 33090. Described as above. To be noted: ATCC33090. Type of series: cell-based. As for the experimental part: as §3
Series [7] relates to Listeria monocytogenes ATCC 14780. The description is as above. The settings on record: ATCC14780. Type of series: cell-based. The protocol:
as §3

The subject of series [8] is Proteus mirabilis ATCC 29936. The series is described as above. Type of series: cell-based. To be noted: ATCC29936. The protocol:
as §3

In series [9] the test system is Pseudomonas aeruginosa ATCC 27853. The series is described as above. It counts as cell-based. The settings on record: ATCC27853. The protocol: as §3
The test system of series [10] is Staphylococcus aureus ATCC 43300 (MRSA). Described as above. Type of series: cell-based. As for the experimental part:
as §3

Series [11] deals with Streptococcus pneumoniae ATCC 49619. Described as above. It counts as cell-based. To be noted: ATCC49619. The protocol:
as §3

The test system of series [12] is Streptococcus pneumoniae D39. The series is described as above. Type of series: cell-based. The protocol:
as §3

Series [13] deals with all of the Staphylococcus aureus tested strains. Put plainly: In-vitro antibacterial activity (MIC), Staphylococcus aureus strains. Type of series: cell-based. The protocol: as §3
The test system of series [14] is S. aureus ATCC43300 resistant strain. Put plainly: Killing curves experiments. It counts as cell-based, Staphylococcus aureus. To be noted: concentration equivalent to 4 times the MIC; data not shown.

Molecules are shown by their SMILES. In brackets after ≈: the same amount, converted by molar mass. Read-outs that look alike come from different tables or passages of the source.

PBP2x 5204, sequence (P59676 49-750): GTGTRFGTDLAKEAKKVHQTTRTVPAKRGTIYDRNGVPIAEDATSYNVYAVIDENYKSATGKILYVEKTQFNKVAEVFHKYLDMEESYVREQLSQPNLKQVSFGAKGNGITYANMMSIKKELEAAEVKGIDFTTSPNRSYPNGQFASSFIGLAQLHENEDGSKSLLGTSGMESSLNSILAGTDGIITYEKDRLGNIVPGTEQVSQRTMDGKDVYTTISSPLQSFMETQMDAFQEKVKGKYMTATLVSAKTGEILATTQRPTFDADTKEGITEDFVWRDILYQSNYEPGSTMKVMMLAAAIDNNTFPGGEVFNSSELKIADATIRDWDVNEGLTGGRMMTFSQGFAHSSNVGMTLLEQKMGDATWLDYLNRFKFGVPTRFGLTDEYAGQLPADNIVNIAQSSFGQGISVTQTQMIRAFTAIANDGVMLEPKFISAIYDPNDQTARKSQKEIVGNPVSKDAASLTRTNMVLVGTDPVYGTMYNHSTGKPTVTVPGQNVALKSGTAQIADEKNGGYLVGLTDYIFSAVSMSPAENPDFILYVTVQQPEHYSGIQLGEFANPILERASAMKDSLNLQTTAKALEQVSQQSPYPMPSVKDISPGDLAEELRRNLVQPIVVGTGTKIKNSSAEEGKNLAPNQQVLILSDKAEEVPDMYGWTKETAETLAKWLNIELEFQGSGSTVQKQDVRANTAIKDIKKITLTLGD
T1 sequence (P07944 whole entry): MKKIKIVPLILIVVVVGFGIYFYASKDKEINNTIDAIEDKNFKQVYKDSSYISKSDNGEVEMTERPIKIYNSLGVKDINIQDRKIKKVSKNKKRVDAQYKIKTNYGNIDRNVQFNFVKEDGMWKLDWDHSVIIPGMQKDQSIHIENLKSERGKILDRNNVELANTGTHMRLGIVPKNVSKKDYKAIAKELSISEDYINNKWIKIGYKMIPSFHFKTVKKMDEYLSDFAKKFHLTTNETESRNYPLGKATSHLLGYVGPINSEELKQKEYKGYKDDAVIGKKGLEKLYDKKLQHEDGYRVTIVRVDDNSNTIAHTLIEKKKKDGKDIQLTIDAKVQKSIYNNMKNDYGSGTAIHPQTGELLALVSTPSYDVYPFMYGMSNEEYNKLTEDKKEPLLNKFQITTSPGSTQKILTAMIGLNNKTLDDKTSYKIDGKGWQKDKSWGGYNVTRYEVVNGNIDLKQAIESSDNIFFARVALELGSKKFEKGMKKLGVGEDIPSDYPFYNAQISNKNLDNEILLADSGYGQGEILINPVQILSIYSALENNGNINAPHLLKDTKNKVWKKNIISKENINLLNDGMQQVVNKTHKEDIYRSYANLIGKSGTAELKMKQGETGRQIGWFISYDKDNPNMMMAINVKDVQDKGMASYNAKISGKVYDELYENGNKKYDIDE
PBP5fm, sequence (Q47759 entry or part of it): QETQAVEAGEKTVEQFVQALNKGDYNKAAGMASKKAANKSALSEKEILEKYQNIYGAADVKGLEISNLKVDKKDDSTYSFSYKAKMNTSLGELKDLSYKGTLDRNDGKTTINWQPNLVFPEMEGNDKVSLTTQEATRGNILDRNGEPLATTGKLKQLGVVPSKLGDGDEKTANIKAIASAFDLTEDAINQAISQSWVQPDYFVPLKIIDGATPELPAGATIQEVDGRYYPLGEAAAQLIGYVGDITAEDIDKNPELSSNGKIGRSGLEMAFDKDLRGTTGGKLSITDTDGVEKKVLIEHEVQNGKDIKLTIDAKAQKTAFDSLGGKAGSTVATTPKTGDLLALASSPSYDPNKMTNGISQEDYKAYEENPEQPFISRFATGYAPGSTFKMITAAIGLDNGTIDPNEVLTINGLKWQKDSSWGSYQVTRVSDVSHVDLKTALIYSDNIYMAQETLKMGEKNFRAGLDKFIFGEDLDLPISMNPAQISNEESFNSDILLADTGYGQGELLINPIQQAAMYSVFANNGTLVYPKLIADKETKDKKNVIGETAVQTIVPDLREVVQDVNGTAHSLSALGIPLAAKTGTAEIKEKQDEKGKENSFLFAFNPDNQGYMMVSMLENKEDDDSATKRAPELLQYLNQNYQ

In general, IC50 refers to the concentration that gives 50% inhibition. By melting point is commonly meant the temperature of the solid-liquid transition. Molecule `CCCCOc1ccc2cc(S(=O)(=O)Nc3ccccc3C(=O)O)ccc2c1` [compound 1, 2-(6-butoxynaphthalene-2-sulfonamido)benzoic acid] gave a melting point of 192 to 194 °C. Further, the remaining activity at 1000 µM at PBP2a (4 h, residual activity of the enzyme at 1 mM inhibitor, 0.01% Triton X-100, mean of three experiments, read-out: PBP2a RA [%]) stood at 0%. The IC50 on PBP2a (in the presence of 0.01% Triton X-100) is 97 µM. The concentration for half-maximal inhibition (IC50) on PBP2x 5204 (read-out: PBP2x5204 IC50, in the presence of 0.01% Triton X-100) is 391 µM. The “PBP2x5204 RA [%]” value at PBP2x 5204 (residual activity of the enzyme at 500 µM inhibitor, 240 min) came to 38%. The activity at 1000 µM on PBP5fm was 100%. Further, the MIC in series [1] came to 2 µg/mL (≈ 5.01 µM). This molecule also returned an MIC in series [2] greater than 1020 µg/mL. Further, the MIC in series [3] was determined as 64 µg/mL (≈ 160 µM). This molecule also registered an MIC in [4] of 16 µg/mL (≈ 40.1 µM). Further, in [5], the MIC is greater than 1020 µg/mL. This molecule also came in with an MIC in series [6] of 16 µg/mL (≈ 40.1 µM). Besides, in [7], the MIC is 16 µg/mL (≈ 40.1 µM). Also, the MIC in series [8] is greater than 1020 µg/mL. Further, the MIC in series [9] was greater than 1020 µg/mL. The molecule also displayed an MIC in series [10] of 32 µg/mL (≈ 80.1 µM). In series [11], this molecule gave an MIC of 1 µg/mL (≈ 2.5 µM). Besides, the MIC in [12] came to 1 µg/mL (≈ 2.5 µM). For the same molecule, the MIC in [13] (MRSA, read-out: minimum inhibitory concentration (MIC) against MRSA) was found to be 32 µg/mL. Besides, in series [13] (all S. aureus tested strains, converted from µg/ml, read-out: MIC value for all of the Staphylococcus aureus tested strains), the MIC was determined as 80 µM. The MIC in series [13] (all S. aureus tested strains, read-out: MIC value for all of the Staphylococcus aureus tested strains) was 32 µg/mL. Also, the “killing curves, bacterial count” value in [14] is “no viable cells were observed after 120 min”.

The values above are taken from PMC3090393, “New Noncovalent Inhibitors of Penicillin-Binding Proteins from Penicillin-Resistant Bacteria” (PLoS ONE, 2011).
